# Read-outs that look alike come from different tables or passages of the source.
# Assays:
# Other blue green = conditions: hatchery after DHP treatment
# Description: (§1) Hatcheries and chick production facilities are subject to heavy bacterial loads that are difficult to control. In addition to the animals themselves, there is a significant contamination of the facilities from the outside.
# Total bacteria = conditions: hatchery after DHP treatment
# Description: as §1
# [1] = system: A. brasiliensis ATCC 16404
# Description: 24 and 48 hour test cultures of S. aureus, as well as all A. brasiliensis and C. difficile are prepared with 0.1% Triton X-100. A 6 hour test culture of S. aureus is prepared with 5.0% Petal Bovine Serum and no Triton. Carriers (slides) are inoculated, in duplicate per test microorganism per condition, at a target concentration of 1×10^6 CPU/Carrier. Inoculated carriers are allowed to dry at ambient temperatures, and are then placed in respective conditions to endure contact times. Carriers for S. aureus endured contact times of 6, 24, and 48 hours. Carriers for A. brasiliensis endured contact times of 12, 24, and 48 hours. […] After respective contact times, carriers are harvested in 10.0 mL of D/E Broth, vortex mixed, diluted, and plated on the appropriate growth media for each microorganism. Environmental conditions are monitored using the Drager Rohrchen, and Drager Polytron methods described in Example 1. (Note: The limit of detection for this assay is 5.0 CPU. Samples with no detectable colonies are listed as <5.00E+OO in the table).
# [2] = system: bacteria on commercial eggs
# Description: For sampling, individual eggs are placed in Whirl-Pak bags containing 10 milliliters (ml) of tryptic soy broth and manually rubbed in bag for 1 minute each. The washed eggs are discarded. One (1) ml from each sample is transferred to a deep well plate in triplicate and 10 fold serial dilutions performed with tryptic soy broth to 10−^11 dilution. The deep well plates are incubated for 24 hours at 37° C. After incubation, 5 microliters (5 μl) of each well is stamped onto a 96-well plate containing either tryptic soy agar (TSA) or MacConkey (Macx) agar. TSA agar is a non-selective, general purpose media. Macx agar is a selective, differential culture media for Gram-negative enteric bacilli. The agar plates are incubated 24 hours at 37° C. and then scored for bacterial growth.
# A similar experiment is performed under egg cooler conditions. […] In this experiment, 300 commercial eggs are placed in the cooler and twenty (20) eggs are sampled, four times over five (5) days at 0 hours, 24 hours, 72 hours, and 120 hours as described above.
# [3] = Day 4 DHP+, summary of replicates stored 4 days
# [4] = Day 5 DHP+, summary of replicates stored 5 days
# [5] = Day 6 DHP+, summary of replicates stored 6 days
# [6] = Day 7 DHP+, summary of replicates stored 7 days
# Description for eggs and hatched chicks: A total of 22 replicates of 90 eggs each of age matched, flock matched eggs are stored prior to incubation for 4 to 7 days in an on-site egg room at about 20° C. […] The paired replicates are then incubated to hatching under standard commercial conditions. At hatching, the following parameters are assessed and recorded: Total Hatchability (%), Fertile Hatchability (%),% Infertile, Early dead (%), Mid dead (%), Late dead (%), Cracked (%), Contaminated (%), Live pip (%), Dead pip (%), Cull dead chick (%), Chick Weight (g), Chick A (%), and Chick B (%).
smiles,measurement,setting,value
"OO [DHP, dry hydrogen peroxide]",Post,Other blue green,56
same,Reduction,Total bacteria,over 90%
same,Average CFU/Carrier,"[1]; 12 Hours, Hood (Treated)",2.18E+06 CFU/Carrier
same,Log Reduction compared to Control,"[1]; 12 Hours, Hood (Treated)",0.02 Log
same,Percent Reduction compared to Control,"[1]; 12 Hours, Hood (Treated)",4.40%
same,Average CFU/Carrier,"[1]; 12 Hours, Room (Treated)",3.10E+06 CFU/Carrier
same,Log Reduction compared to Control,"[1]; 12 Hours, Room (Treated)",None
same,Percent Reduction compared to Control,"[1]; 12 Hours, Room (Treated)",None
same,Average CFU/Carrier,"[1]; 24 Hours, Hood (Treated)",9.75E+05 CFU/Carrier
same,Log Reduction compared to Control,"[1]; 24 Hours, Hood (Treated)",0.29 Log
same,Percent Reduction compared to Control,"[1]; 24 Hours, Hood (Treated)",48.68%
same,Average CFU/Carrier,"[1]; 24 Hours, Room (Treated)",1.43E+06 CFU/Carrier
same,Log Reduction compared to Control,"[1]; 24 Hours, Room (Treated)",0.12 Log
same,Percent Reduction compared to Control,"[1]; 24 Hours, Room (Treated)",25.00%
same,Replicate CFU/Carrier,"[1]; 24 Hours, Room (Treated)",1.75E+06 CFU/Carrier
same,Average CFU/Carrier,"[1]; 48 Hours, Hood (Treated)",6.75E+05 CFU/Carrier
same,Log Reduction compared to Control,"[1]; 48 Hours, Hood (Treated)",0.28 Log
same,Percent Reduction compared to Control,"[1]; 48 Hours, Hood (Treated)",47.06%
same,Average CFU/Carrier,"[1]; 48 Hours, Room (Treated)",1.70E+06 CFU/Carrier
same,Log Reduction compared to Control,"[1]; 48 Hours, Room (Treated)",None
same,Percent Reduction compared to Control,"[1]; 48 Hours, Room (Treated)",None
same,"growth on Mac, treated group","[2]; 72 hours compared to 0 hours, p=0.001",significantly less growth
same,"growth on Mac, treated group","[2]; 120 hours compared to 0 hours, p=0.0001",significantly more growth
same,"growth on Mac, treated group","[2]; 120 hours compared to 0 hours, p=0.05",significantly less growth
same,Mac growth with treatment,"[2]; egg cooler, 0-120 hours",low throughout
same,TSA growth with treatment,"[2]; egg cooler, 0-120 hours",static until 120 hours
same,"% Infertile, delta","eggs and hatched chicks; 4 day delta, DHP+ versus DHP−",0.64%
same,"Chick A, delta","eggs and hatched chicks; 4 day delta, DHP+ versus DHP−",0.14%
same,"Chick B, delta","eggs and hatched chicks; 4 day delta, DHP+ versus DHP−",−0.14%
same,"Chick Weight, delta","eggs and hatched chicks; 4 day delta, DHP+ versus DHP−",0.89 g
same,"Cont, delta","eggs and hatched chicks; 4 day delta, DHP+ versus DHP−",0.00%
same,"Crack, delta","eggs and hatched chicks; 4 day delta, DHP+ versus DHP−",0.32%
same,"Cull dead cks, delta","eggs and hatched chicks; 4 day delta, DHP+ versus DHP−",0.00%
same,"Dead pip, delta","eggs and hatched chicks; 4 day delta, DHP+ versus DHP−",−0.16%
same,"Early dead, delta","eggs and hatched chicks; 4 day delta, DHP+ versus DHP−",−0.33%
same,"Fertile Hatchability, delta","eggs and hatched chicks; 4 day delta, DHP+ versus DHP−",0.12%
same,"Late dead, delta","eggs and hatched chicks; 4 day delta, DHP+ versus DHP−",−0.64%
same,"Live pip, delta","eggs and hatched chicks; 4 day delta, DHP+ versus DHP−",0.63%
same,"Mid dead, delta","eggs and hatched chicks; 4 day delta, DHP+ versus DHP−",0.16%
same,"Total Hatchability, delta","eggs and hatched chicks; 4 day delta, DHP+ versus DHP−",−0.64%
same,"Chick Weight, delta","eggs and hatched chicks; 5 day delta, DHP+ versus DHP−",0.85 g
same,"Cont, delta","eggs and hatched chicks; 5 day delta, DHP+ versus DHP−",0.00%
same,"Crack, delta","eggs and hatched chicks; 5 day delta, DHP+ versus DHP−",−0.19%
same,"Cull dead cks, delta","eggs and hatched chicks; 5 day delta, DHP+ versus DHP−",0.00%
same,"Dead pip, delta","eggs and hatched chicks; 5 day delta, DHP+ versus DHP−",−0.37%
same,"Early dead, delta","eggs and hatched chicks; 5 day delta, DHP+ versus DHP−",−1.70%
same,"Fertile Hatchability, delta","eggs and hatched chicks; 5 day delta, DHP+ versus DHP−",3.20%
same,"Live pip, delta","eggs and hatched chicks; 5 day delta, DHP+ versus DHP−",0.37%
same,"Mid dead, delta","eggs and hatched chicks; 5 day delta, DHP+ versus DHP−",0.74%
same,"% Infertile, delta","eggs and hatched chicks; 6 day delta, DHP+ versus DHP−",0.94%
same,"Chick A, delta","eggs and hatched chicks; 6 day delta, DHP+ versus DHP−",−0.57%
same,"Chick B, delta","eggs and hatched chicks; 6 day delta, DHP+ versus DHP−",0.57%
same,"Chick Weight, delta","eggs and hatched chicks; 6 day delta, DHP+ versus DHP−",0.49 g
same,"Cont, delta","eggs and hatched chicks; 6 day delta, DHP+ versus DHP−",0.00%
same,"Crack, delta","eggs and hatched chicks; 6 day delta, DHP+ versus DHP−",0.00%
same,"Cull dead cks, delta","eggs and hatched chicks; 6 day delta, DHP+ versus DHP−",−0.48%
same,"Dead pip, delta","eggs and hatched chicks; 6 day delta, DHP+ versus DHP−",−0.48%
same,"Late dead, delta","eggs and hatched chicks; 6 day delta, DHP+ versus DHP−",−0.82%
same,"Live pip, delta","eggs and hatched chicks; 6 day delta, DHP+ versus DHP−",−0.16%
same,"Mid dead, delta","eggs and hatched chicks; 6 day delta, DHP+ versus DHP−",0.48%
same,Cont,eggs and hatched chicks; [3],0.00%
same,Crack,eggs and hatched chicks; [3],0.48%
same,Cull dead cks,eggs and hatched chicks; [3],0.00%
same,Dead pip,eggs and hatched chicks; [3],0.16%
same,Live pip,eggs and hatched chicks; [3],0.95%
same,Mid dead,eggs and hatched chicks; [3],0.16%
same,Cont,eggs and hatched chicks; [4],0.00%
same,Crack,eggs and hatched chicks; [4],0.00%
same,Cull dead cks,eggs and hatched chicks; [4],0.00%
same,Dead pip,eggs and hatched chicks; [4],0.00%
same,Live pip,eggs and hatched chicks; [4],0.56%
same,Mid dead,eggs and hatched chicks; [4],0.93%
same,Cont,eggs and hatched chicks; [5],0.00%
same,Crack,eggs and hatched chicks; [5],0.00%
same,Cull dead cks,eggs and hatched chicks; [5],0.00%
same,Dead pip,eggs and hatched chicks; [5],0.00%
same,Early dead,eggs and hatched chicks; [5],2.70%
same,Live pip,eggs and hatched chicks; [5],0.16%
same,Mid dead,eggs and hatched chicks; [5],0.79%
same,% Infertile,eggs and hatched chicks; [6],0.56%
same,Cont,eggs and hatched chicks; [6],0.00%
same,Crack,eggs and hatched chicks; [6],0.00%
same,Cull dead cks,eggs and hatched chicks; [6],0.56%

# Reference: patent US12102063B2 (SYNEXIS LLC, priority 2017, dated 2024)
